Laboratory results: US12486334B2, “Chemically controlled monoclonal antibody target engagement” (The Regents of the University of California, priority 2019, dated 2025)

Legend:
[1] = tested on: human H358 (G12C+) cells xenografted tumors; assay: H358 xenograft murine model, P1A4 IgG staining of harvested tumors by flow cytometry; format: in vivo, Mice
Experimental: In order to test whether ARS-1620 is accessible and targetable on the surface of treated cells in more complex systems, an H358 xenograft murine model was utilized. Mice were xenografted with human H358 (G12C+) cells and treated with either DMSO (placebo), ARS-1620 (1× at 200 mg/kg, or 3× at 200 mg/kg daily), or AMG-510 (1× at 100 mg/kg).

[2] = tested on: colocalization of ARS-1620 and MHC in a KRas G12C cell line; assay: Proximity ligation assay (PLA); format: cell-based; conditions: not with atropisomer or DMSO
Text: FIG. 5 is a schematic of the proximity ligation assay (PLA) for detecting colocalization of two antigens. […] Secondary antibodies are directed against the Fc region of the human or murine antibodies, and are attached to complimentary oligos used to assemble a complementary oligo for rolling circle amplification (RCA). Amplification only occurs if the two antigens are colocalized, and amplified oligos are detected with complimentary, fluorogenic oligos.
(§1) To test whether the cell surface exposed ARS-1620 was pMHC associated, a proximity ligation assay was used in which fluorescent signal is indicative of colocalization of ARS-1620 and MHC (FIG. 5). […] To test whether this colocalization was due to direct covalent reaction with MHC molecules already on the cell surface or due to traditional loading of intracellular MHCs with covalently modified intracellular peptides, a covalent capture ELISA was used to detect ARS-1620 labeled peptides eluted from cells by mild acid elution. A short acid treatment dissociates peptides from the pMHC on living cells, allowing capture of the presented peptides in the acidic buffer supernatant and subsequent covalent immobilization via their N-terminus for ELISA. […] The eluted peptides and peptides obtained from MHC immunoprecipitation are analyzed by mass spectrometry to precisely identify haptenized peptide sequences.

[3] = biological target: KRas G12C (Homo sapiens, UniProt P01116, G12C); conditions: Visscher et al. 2016; cited from earlier work
[4] = tested on: H358 (G12C+) cell lysate; assay: Western blot of cell lysate with P1A4 IgG; format: binding; conditions: treated H358 (G12C+) cells
[5] = tested on: KRas G12C cell lines (H358, MiaPaca-2, SW1573); assay: Flow cytometry of cell-surface accessible ARS-1620 with P1A4; format: cell-based; conditions: several KRas G12C cell lines compared to a wild type KRas cell line
Text: Low background staining observed in the presence of DMSO treatment confirms that the interaction is ARS-1620 dependent.

[6] = tested on: ARS-1620 labeled peptides eluted from KRas G12C cells; assay: Covalent capture ELISA of MHC eluted peptides (mild acid elution); format: cell-based; conditions: ARS-1620 treated KRas G12C samples, stained with P1A4 IgG
Text: as §1

[7] = biological target: wild type KRas (Homo sapiens, UniProt P01116); conditions: Visscher et al. 2016; cited from earlier work
[8] = tested on: T-cells of PBMCs co-incubated with MiaPaca-2 (KRas G12C) cells; assay: T cell activation (CD3/CD69) by flow cytometry after 72 hr co-incubation; format: cell-based; conditions: ARS1620, No Ab
Text: MiaPaca-2 (KRas G12C) cells were pulsed with either DMSO or ARS-1620 in order to label proteins without exerting a direct pharmacological effect on the health of the cells. […] Following the 72 hr treatment, cells were stained for T-cell receptors (CD3) and T-cell activation (CD69) and analyzed by flow cytometry.

| SMILES | P1A4 IgG staining of xenografted tumor cells ([1]; AMG-510 1× at 100 mg/kg) | fluorescent signal (colocalization of ARS-1620 with MHC) [2] | specificity for KRas G12C over other cellular proteins [3] | off-targets of ARS-1620 detected by western blot with P1A4 [4] | increase in cell surface ARS-1620 [5] | P1A4 IgG staining of xenografted tumor cells ([1]; ARS-1620 1× at 200 mg/kg or 3× at 200 mg/kg daily) | ARS-1620 haptenized peptides in MHC eluted peptides [6] | binding to wild type KRas lacking acquired cysteine [7] | % CD3 + CD69+ [8] |
| --- | --- | --- | --- | --- | --- | --- | --- | --- | --- |
| C=CC(=O)N1CCN(c2nc(=O)n(-c3c(C)ccnc3C(C)C)c3nc(-c4c(O)cccc4F)c(F)cc23)[C@@H](C)C1 [AMG-510] | no P1A4 staining | – | – | – | – | – | – | – | – |
| C=CC(=O)N1CCN(c2ncnc3c(F)c(-c4c(O)cccc4F)c(Cl)cc23)CC1 (atropisomer, axis not shown) [ARS-1620] | – | detectable | high specificity | additional off-targets | 10 × | P1A4+ cell population emerged | readily detected | no appreciable binding | 2.42% |
